In patent US12162893B2 (Erasca, Inc., priority 2020, dated 2024):

molecular target: T1, mutant G12C K-RAS (Homo sapiens, UniProt P01116, G12C); assay: covalent adduct formation (CAF) with mutant G12C K-RAS; type: binding; conditions: Table 5; 10 uM, 1 h
T1 construct: made in house; host or cells: E. coli BL21
Protocol: Embodiments disclosed herein are further illustrated by the following examples in Tables 1-4 and the Examples hereinbelow. The Tables indicate the compound number, structure, the observed mass spectral molecular weight peak, and covalent adduct formation (CAF) with a mutant G12C K-RAS after 60 minutes at a concentration of 10 micromolar.

`C=CC(=O)N1CCN(c2nc(=O)n3c4c(c(-c5ccc(F)cc5F)c(Cl)cc24)SC[C@H]3CN2CCN(CC(F)F)CC2)[C@@H](C)C1` [Example 70, (3R)-7-((S)-4-acryloyl-2-methylpiperazin-1-yl)-9-chloro-3-((4-(2,2-difluoroethyl)piperazin-1-yl)methyl)-10-(2,4-difluorophenyl)-2,3-dihydro-5H-[1,4]thiazino[2,3,4-ij]quinazolin-5-one] was tested, and the “% CAF @ 10 uM, 1 h” value was 94%.

same assay, conditions: Table 6; 10 μM, 1 h

First: C=CC(=O)N1C[C@H](C)N(c2nc(=O)n3c4c(c(-c5ccc(F)cc5F)c(Cl)cc24)OC[C@H]3CN2C[C@H]3CC[C@@H](C2)N3C)C[C@H]1C [Example 285, (3R)-7-((2S,5R)-4-acryloyl-2,5-dimethylpiperazin-1-yl)-9-chloro-10-(2,4-difluorophenyl)-3-(((1R,5S)-8-methyl-3,8-diazabicyclo[3.2.1]octan-3-yl)methyl)-2H-[1,4]oxazino[2,3,4-ij]quinazolin-5(3H)-one]
Second: C=CC(=O)N1C[C@H](C)N(c2nc(=O)n3c4c(c(-c5ccc(F)cc5F)c(Cl)cc24)OC[C@H]3CN2CCN(C)CC2=O)C[C@H]1C [Example 280, (3R)-7-((2S,5R)-4-acryloyl-2,5-dimethylpiperazin-1-yl)-9-chloro-10-(2,4-difluorophenyl)-3-((4-methyl-2-oxopiperazin-1-yl)methyl)-2H-[1,4]oxazino[2,3,4-ij]quinazolin-5(3H)-one]
The “% CAF @ 10 μM,1 h” value of the first is higher: 86.2% for the first, 57.5% for the second.

First: C=CC(=O)N1C[C@H](C)N(c2nc(=O)n3c4c(c(-c5c(O)cccc5F)c(Cl)cc24)OC[C@@H]3CN(C)CC(F)(F)F)C[C@H]1C (atropisomer, axis not shown) [Example 239, (3S,10R)-7-((2S,5R)-4-acryloyl-2,5-dimethylpiperazin-1-yl)-9-chloro-10-(2-fluoro-6-hydroxyphenyl)-3-((methyl(2,2,2-trifluoroethyl)amino)methyl)-2H-[1,4]oxazino[2,3,4-ij]quinazolin-5(3H)-one]
Second: C=CC(=O)N1C[C@H](C)N(c2nc(=O)n3c4c(c(-c5c(O)cccc5F)c(Cl)cc24)OC[C@@H]3CN2CCC(F)(F)C2)C[C@H]1C [Example 220, (3S,10R)-7-((2S,5R)-4-acryloyl-2,5-dimethylpiperazin-1-yl)-9-chloro-3-((3,3-difluoropyrrolidin-1-yl)methyl)-10-(2-fluoro-6-hydroxyphenyl)-2,3-dihydro-5H-[1,4]oxazino[2,3,4-ij]quinazolin-5-one]
The “% CAF @ 10 μM,1 h” value of the first is higher: 3% for the first, 0% for the second.

`C=CC(=O)N1C[C@H](C)N(c2nc(=O)n3c4c(c(-c5c(F)ccc6[nH]nnc56)ccc24)OCC3)C[C@H]1C` [Example 223, 7-((2S,5R)-4-acryloyl-2,5-dimethylpiperazin-1-yl)-10-(5-fluoro-1H-benzo[d][1,2,3]triazol-4-yl)-2,3-dihydro-5H-[1,4]oxazino[2,3,4-ij]quinazolin-5-one] and `C=CC(=O)N1C[C@H](C)N(c2nc(=O)n3c4c(c(-c5c(O)cccc5F)c(Cl)cc24)OC[C@H]3CN2CCN(C)CC2)C[C@H]1C` (atropisomer, axis not shown) [Example 300, (3R,10R)-7-((2S,5R)-4-acryloyl-2,5-dimethylpiperazin-1-yl)-9-chloro-10-(2-fluoro-6-hydroxyphenyl)-3-((4-methylpiperazin-1-yl)methyl)-2,3-dihydro-5H-[1,4]oxazino[2,3,4-ij]quinazolin-5-one] are the same in “% CAF @ 10 μM,1 h” value: 0% for the first, 0% for the second.

With `C=CC(=O)N1C[C@H](C)N(c2nc(=O)n3c4c(c(-c5ccc(F)cc5F)c(Cl)cc24)O[C@H](CCCN2CCN(C)CC2)C3)C[C@H]1C` [Example 260, (2R)-7-((2S,5R)-4-acryloyl-2,5-dimethylpiperazin-1-yl)-9-chloro-10-(2,4-difluorophenyl)-2-(3-(4-methylpiperazin-1-yl)propyl)-2,3-dihydro-5H-[1,4]oxazino[2,3,4-ij]quinazolin-5-one] the “% CAF @ 10 μM,1 h” value was 48.4%.
